The source of these data is patent US9732060B2, “Aminotriazine derivative and pharmaceutical composition comprising the same” (Shionogi & Co., Ltd., priority 2013, dated 2017).

Data set [1] has as its target CYP2C19 (Homo sapiens (Human), UniProt P33261). The data set can be described thus: CYP inhibition test, CYP2C19. Type of data set: in vitro ADME. The following applies: pooled human hepatic microsome; mephenytoin 4′-hydroxylation. The protocol:
(§1) Using commercially available pooled human hepatic microsome, and employing, as markers, 7-ethoxyresorufin-O-deethylation (CYP1A2), tolbutamide methyl-hydroxylation (CYP2C9), mephenytoin 4′-hydroxylation (CYP2C19), dextromethorphan O-demethylation (CYP2D6), and terfenedine hydroxylation as typical substrate metabolism reactions of human main five CYP enzyme forms (CYP1A2, 2C9, 2C19, 2D6, 3A4), an inhibitory degree of each metabolite production amount by a test compound was assessed.
(§2) The reaction conditions were as follows: substrate, 0.5 μmol/L ethoxyresorufin (CYP1A2), 100 μmol/L tolbutamide (CYP2C9), 50 μmol/L S-mephenitoin (CYP2C19), 5 μmol/L dextromethorphan (CYP2D6), 1 μmol/L terfenedine (CYP3A4); reaction time, 15 minutes; reaction temperature, 37° C. enzyme, pooled human hepatic microsome 0.2 mg protein/mL; test, drug concentration, 1.0, 5.0, 10, 20 μmol/L (four points).
(§3) Each five kinds of substrates, human hepatic microsome, or a test drug in 50 mmol/L Hepes buffer as a reaction solution was added to a […] at the composition as described above, NADPH, as a cofactor was added to initiate metabolism reactions as markers and, after the incubation at 37° C. for 15 minutes, a methanol/acetonitrile=1/1 (v/v) solution was added to stop the reaction. After the centrifugation at 3000 rpm for 15 minutes, resorufin (CYP1A2 metabolite) in the supernatant was quantified by a fluorescent multilabel counter and tributamide hydroxide (CYP2CP metabolite), mephenytoin 4′hydroxide (CYP2C19 metabolite), […] (CYP2D6 metabolite), and terfenadine alcohol (CYP3A4 metabolite) were quantified by LC/MS/MS.
(§4) Addition of only DMSO being a solvent dissolving a drug to a reaction system was adopted as a control (100%), remaining activity (%) was calculated at each concentration of a test drug added as the solution and IC50 was calculated by reverse presumption by a logistic model using a concentration and an inhibition rate.

The nature of data set [2]: Metabolism stability test, pooled human hepatic microsomes. Type of data set: in vitro ADME. The following applies: remaining rate, human liver microsomes, 30 minutes, compound concentration 0.5 μmol/L. How it is done:
Using commercially available pooled human hepatic microsomes, a test compound is reacted for a constant time, a remaining rate is calculated by comparing a reacted sample and an unreacted sample, thereby, a degree of metabolism in liver is assessed.
A reaction was performed (oxidative reaction) at 37° C. for 0 minute or 30 minutes in the presence of 1 mmol/L NADPH in 0.2 mL of a buffer (50 mmol/L tris-HCl pH 7.4, 150 mmol/L potassium chloride, 10 mmol/L magnesium chloride) containing 0.5 mg protein/mL of human liver microsomes. After the reaction, 50 μL of the reaction solution was added to 100 μL of a methanol/acetonitrile=1/1 (v/v) mixed and centrifuged at 3000 rpm for 15 minutes. The test compound in the supernatant was quantified by LC/MS/MS, and a remaining amount of the test compound after the reaction was calculated, letting a compound amount at 0 minute reaction time to be 100%.
The remaining rate at the compound concentration 0.5 μmol/L are shown below.

Data set [3] has as its target CYP2C9 (Homo sapiens (Human), UniProt P11712). The data set can be described thus: CYP inhibition test, CYP2C9. Particulars: pooled human hepatic microsome; tolbutamide methyl-hydroxylation. In kind it is in vitro ADME. How it is done: as §1, §2, §3, §4
Data set [4] is described as follows: Solubility test (1% DMSO, artificial intestinal juice pH 6.8). Particulars: artificial intestinal juice pH 6.8 with 1% DMSO, 25 °C, fassgf or other biorelevant, kinetic from dmso stock, artificial intestinal juice pH 6.8, 25 degrees Celsius, read-out: Solubulity. In kind it is physicochemical. The protocol: The solubility of a compound was determined under a condition in which 1% DMSO was added. 10 mmol/L compound solution was prepared using DMSO, and then 2 μL of the compound solution was added to 198 μL of artificial intestinal juice in pH 6.8 (to 250 mL of 0.2 mol/L potassium dihydrogen phosphate reagent solution was added 118 mL of 0.2 mol/L NaOH reagent solution and water to provide a final volume of 1000 mL). After standing at 25 degrees Celsius for 18 hours, the mixed solution was filtrated with suction. The filtrate was diluted twice with methanol/water (1/1), and then a concentration in the filtration was measured with HPLC or LC/MS/MS by the absolute calibration method.

The target of data set [5] is CYP2D6 (Homo sapiens (Human), UniProt P10635). Description: CYP inhibition test, CYP2D6. Type of data set: in vitro ADME. Particulars: pooled human hepatic microsome; dextromethorphan O-demethylation. How it is done:
as §1, §2, §3, §4

For data set [6], the target named is CYP3A4 (Homo sapiens (Human), UniProt P08684). Description: CYP inhibition test, CYP3A4. The following applies: pooled human hepatic microsome; terfenedine hydroxylation. In kind it is in vitro ADME. The protocol:
as §1, §2, §3, §4

For data set [7], the target named is CYP1A2 (Homo sapiens (Human), UniProt P05177). Description: CYP inhibition test, CYP1A2. Type of data set: in vitro ADME. The following applies: pooled human hepatic microsome; 7-ethoxyresorufin-O-deethylation. The protocol: as §1, §2, §3, §4
The target in data set [8] is T1, human P2X3 receptor (Homo sapiens (Human), UniProt P56373). Description: Evaluation of human P2X3 receptor inhibitory activity (FLIPR Ca fluorescence, ATP-evoked). Type of data set: cell-based. The following applies: C6BU-1 cells stably expressing human P2X3 receptor. How it is done: Stably expressing cell line (C6BU-1 cell transfected with human P2X3 receptor gene (GenBank accession number Y07683) was used. The cells were seeded in a 384-well PDL-coated microtiter plate at a concentration of 3000 cells/well and cultured in the medium (8.3% fetal bovine serum, 8.3% horse serum, and 1% antibiotic and antifungal in DMEM) for one day at 37° C. under 5% carbon dioxide atmosphere. The medium was replaced with 4 μM Fluo-3-AM solution (20 mM HEPES, 137 mM NaCl, 2.7 mM KCl, 0.9 mM MgCl2, 5.0 mM CaCl2, 5.6 mM D-glucose, 2.5 mM probenecid, 0.5% BSA, and 0.04% Pluronic P-127, pH 7.5) and incubated at 37° C. under 5% dioxide carbon atmosphere for one hour. The plate was washed with washing buffer (20 mM HEPES, 137 mM NaCl, 2.7 mM KCl, 0.9 mM MgCl2, 5.0 mM CaCl2, 5.6 mM D-glucose, 2.5 mM probenecid, pH 7.5), and each well was added with 20 μL of the washing buffer. The plate was placed in High-Throughput Screening System FLIPR 384 (Molecular Device Co.). Measurement of fluorescence intensity by […] was started, and 20 μL of DMSO solutions containing different concentrations of the test compound as prepared by dilution with dilution buffer (20 mM HEPES, 137 mM NaCl, 2.7 mM KCl, 0.9 mM MgCl2, 5.0 mM CaCl2, 5.6 mM D-glucose, 2.5 mM probenecid, 0.1% Pluronic F-127, pH 7.5) were dispensed to each well through the built-in automatic dispenser. Five minutes after, 150 nM ATP solution (25 μL) prepared by dilution with the dilution buffer was dispensed through the built-in automatic dispenser, and the measurement of fluorescence intensity was continued for 4 min. For each well, the specific maximum fluorescence intensity was calculated as the ratio of the maximum fluorescence intensity after addition of the ATP solution to the fluorescence intensity at the starting of the measurement. […] The specific maximum fluorescence intensify and IC50 were calculated using Spotfire (Science & Technology Systems. Inc.)

Data set [9] deals with T1, human P2X3 receptor. The data set can be described thus: Evaluation of human P2X3 receptor inhibitory activity in the presence of human serum albumin (HSA). The following applies: in the presence of 1% HSA (final concentration). Type of data set: cell-based. How it is done:
Stably expressing cell line (C6BU-1 cell transfected with human P2X3 receptor gene (GenBank accession number Y07683; was used. The cells were seeded in a 96-well microtiter plate at a concentration of 8000 cells/well and cultured in the medium (7.0% fetal bovine serum, 7.0% horse serum, 1% antibiotic and antifungal, and 2.0% glutamine in DMEM) for one day at 37° C. under 5% carbon dioxide atmosphere. The medium was replaced with 4 μM Fluo-3-AM solution (20 mM HEPES, 137 mM NaCl, 5.37 mM KCl, 0.9 mM MgCl2, 1.26 mM CaCl2, 5.6 mM D-glucose, 2.5 mM probenecid, 0.5% BSA, and 0.04% Pluronic F-127, pH 7.5) and incubated at 37° C. under 5% dioxide carbon atmosphere for one hour. The plate was washed with washing buffer (20 mM HEPES, 137 mM NaCl, 5.27 mM KCl, 0.9 mM MgCl2, 1.26 mM CaCl2, 5.6 mM D-glucose, 2.5 mM probenecid, pH 7.5), and each well was added with 40 μL of this buffer. The plate was placed in High-Throughput Screening System FDSS 3000 (Hamamatsu Photonics K.K.). Measurement of fluorescence intensity by FDSS 3000 was started, and 40 μL of DMSO solutions containing 1% HSA (final concentrations) different concentrations of the test compound as prepared by dilution with dilution buffer (20 mM HEPES, 137 mM NaCl, 5.27 mM KCl, 0.9 mM MgCl2, 1.26 mM CaCl2, 5.6 mM D-glucose, 2.5 mM probenecid, 0.1% Pluronic F-127, pH 7.5) were dispensed to each well through the built-in automatic dispenser. Five minutes after, 50 nM ATP solution (50 μL) prepared by dilution with the dilution buffer was dispensed through the built-in automatic dispenser, and the measurement of fluorescence intensity was continued for 4 min. For each well, the specific maximum fluorescence intensity was calculated as the ratio of the maximum fluorescence intensity after addition of the ATP solution to the fluorescence intensity at the starting of the measurement. […] FDSS software (Hamamatsu Photonics K.K.) was used for calculation of the specific maximum fluorescence intensity. IC50 was calculated using Microsoft Excel (Microsoft Corporation) and XLfit (idbs Ltd.)

T1 sequence (P56373 whole entry): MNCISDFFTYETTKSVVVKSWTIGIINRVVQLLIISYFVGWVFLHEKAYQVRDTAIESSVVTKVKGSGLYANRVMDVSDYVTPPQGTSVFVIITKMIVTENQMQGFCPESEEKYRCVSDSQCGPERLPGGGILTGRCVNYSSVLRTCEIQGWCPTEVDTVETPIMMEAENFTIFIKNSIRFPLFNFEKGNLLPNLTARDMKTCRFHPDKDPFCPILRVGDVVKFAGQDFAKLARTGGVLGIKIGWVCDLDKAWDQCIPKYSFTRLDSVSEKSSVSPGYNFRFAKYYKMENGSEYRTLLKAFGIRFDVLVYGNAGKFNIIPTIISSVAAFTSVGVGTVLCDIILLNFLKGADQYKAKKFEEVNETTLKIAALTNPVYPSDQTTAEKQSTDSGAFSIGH
Chain of CYP1A2 (P05177 whole entry): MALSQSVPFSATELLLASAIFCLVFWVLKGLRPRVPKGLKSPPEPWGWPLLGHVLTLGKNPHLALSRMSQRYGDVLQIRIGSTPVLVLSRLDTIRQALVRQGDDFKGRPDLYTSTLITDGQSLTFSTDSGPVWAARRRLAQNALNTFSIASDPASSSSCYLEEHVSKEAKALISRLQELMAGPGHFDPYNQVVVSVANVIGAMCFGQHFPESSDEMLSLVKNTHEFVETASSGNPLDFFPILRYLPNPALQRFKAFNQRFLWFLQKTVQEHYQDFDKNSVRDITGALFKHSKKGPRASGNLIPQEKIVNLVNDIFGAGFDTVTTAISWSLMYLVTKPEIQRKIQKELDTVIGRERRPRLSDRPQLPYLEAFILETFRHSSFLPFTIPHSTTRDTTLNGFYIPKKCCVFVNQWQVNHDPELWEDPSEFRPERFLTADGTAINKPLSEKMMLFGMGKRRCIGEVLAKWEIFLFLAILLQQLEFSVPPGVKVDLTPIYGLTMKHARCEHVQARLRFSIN
Chain of CYP2C19 (P33261 whole entry): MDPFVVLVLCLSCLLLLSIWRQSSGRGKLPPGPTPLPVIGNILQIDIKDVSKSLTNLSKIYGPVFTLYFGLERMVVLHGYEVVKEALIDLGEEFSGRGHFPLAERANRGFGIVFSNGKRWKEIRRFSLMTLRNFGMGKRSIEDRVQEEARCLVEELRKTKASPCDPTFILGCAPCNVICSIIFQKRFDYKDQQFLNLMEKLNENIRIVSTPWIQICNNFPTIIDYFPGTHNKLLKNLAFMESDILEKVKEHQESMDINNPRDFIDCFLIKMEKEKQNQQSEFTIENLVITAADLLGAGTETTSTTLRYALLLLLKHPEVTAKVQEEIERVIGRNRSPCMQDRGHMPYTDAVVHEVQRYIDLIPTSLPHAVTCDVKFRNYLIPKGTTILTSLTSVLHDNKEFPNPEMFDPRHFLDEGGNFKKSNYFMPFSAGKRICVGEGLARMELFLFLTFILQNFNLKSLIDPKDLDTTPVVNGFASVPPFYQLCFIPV
Chain of CYP2D6 (P10635 whole entry): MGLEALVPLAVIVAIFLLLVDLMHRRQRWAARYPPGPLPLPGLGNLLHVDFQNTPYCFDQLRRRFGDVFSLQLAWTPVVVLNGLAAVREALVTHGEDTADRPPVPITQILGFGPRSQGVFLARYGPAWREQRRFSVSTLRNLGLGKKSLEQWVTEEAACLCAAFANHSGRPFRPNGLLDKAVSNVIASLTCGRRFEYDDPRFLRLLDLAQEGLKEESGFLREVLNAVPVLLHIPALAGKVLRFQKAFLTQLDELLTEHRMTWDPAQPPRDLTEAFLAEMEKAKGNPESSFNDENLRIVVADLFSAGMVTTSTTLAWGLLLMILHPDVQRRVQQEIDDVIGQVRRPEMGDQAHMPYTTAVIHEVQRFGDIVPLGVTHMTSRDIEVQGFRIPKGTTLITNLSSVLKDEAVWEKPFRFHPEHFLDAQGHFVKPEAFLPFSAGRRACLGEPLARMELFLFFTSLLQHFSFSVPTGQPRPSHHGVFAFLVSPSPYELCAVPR
Chain of CYP3A4 (P08684 whole entry): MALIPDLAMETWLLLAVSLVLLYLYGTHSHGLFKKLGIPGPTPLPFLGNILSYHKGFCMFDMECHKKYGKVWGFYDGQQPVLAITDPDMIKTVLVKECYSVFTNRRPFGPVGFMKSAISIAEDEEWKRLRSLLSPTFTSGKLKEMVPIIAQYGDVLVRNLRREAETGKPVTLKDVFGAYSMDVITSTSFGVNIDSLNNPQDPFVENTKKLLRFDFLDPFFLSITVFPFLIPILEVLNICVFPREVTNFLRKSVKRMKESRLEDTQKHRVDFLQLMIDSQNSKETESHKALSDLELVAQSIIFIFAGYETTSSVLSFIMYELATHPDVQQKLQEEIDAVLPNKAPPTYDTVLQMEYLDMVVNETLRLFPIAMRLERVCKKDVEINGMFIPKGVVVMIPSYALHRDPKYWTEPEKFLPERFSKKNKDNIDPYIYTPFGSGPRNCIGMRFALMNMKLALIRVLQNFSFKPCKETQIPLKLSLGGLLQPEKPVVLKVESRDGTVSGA
Chain of CYP2C9 (P11712 whole entry): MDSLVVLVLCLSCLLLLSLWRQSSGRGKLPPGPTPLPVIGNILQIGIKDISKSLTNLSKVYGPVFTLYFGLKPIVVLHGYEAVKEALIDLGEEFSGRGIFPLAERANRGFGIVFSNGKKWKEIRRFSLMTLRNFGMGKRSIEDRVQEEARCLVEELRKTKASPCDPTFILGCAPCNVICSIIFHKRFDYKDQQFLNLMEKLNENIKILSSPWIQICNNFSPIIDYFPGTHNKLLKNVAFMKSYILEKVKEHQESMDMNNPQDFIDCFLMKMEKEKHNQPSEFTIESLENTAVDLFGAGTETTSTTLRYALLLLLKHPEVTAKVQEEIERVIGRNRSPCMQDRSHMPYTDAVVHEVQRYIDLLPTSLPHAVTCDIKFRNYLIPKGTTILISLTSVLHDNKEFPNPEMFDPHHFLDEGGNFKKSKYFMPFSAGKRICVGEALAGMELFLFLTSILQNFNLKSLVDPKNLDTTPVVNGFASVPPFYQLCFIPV

The IC50 is the concentration that inhibits the measured activity by half. With `O=c1[nH]/c(=N\c2ccc(Oc3ncccc3F)cc2)n(Cc2ccc(Cl)cc2)c(=O)n1[C@H]1C[C@H](C(=O)O)C1` [Compound I-063], the IC50 in data set [1], in [3], in [5], in data set [6] and in [7] was over 20000 nM each time. The “Metabolism Stability” value in [2] was 97%. Also, the solubility at 18 h in [4] is over 50 µM.
Regarding `COC(=O)[C@@H](C)Cn1c(=O)[nH]/c(=N\c2ccc(Oc3ccc(F)cn3)cc2)n(Cc2ccc(F)cc2F)c1=O` [Compound I-025], inhibition in data set [8] was half-maximal at 23 nM (IC50).
With `C[C@@H](C(=O)O)[C@H](C)n1c(=O)[nH]/c(=N\c2ccc(Oc3ccnc(Cl)c3)cc2)n(Cc2ccc(Cl)cc2)c1=O` [Compound R-154], half-maximal inhibition in [8] (IC50) required 8 nM.
As for `C[C@@H](Cn1c(=O)[nH]/c(=N\c2ccc(Oc3ccnc(C#N)c3)cc2)n(Cc2ccc(Cl)cc2)c1=O)C(=O)O` [Compound R-123], the IC50 in [9] amounted to 18 nM.
As to `C[C@@H](Cn1c(=O)[nH]/c(=N\c2ccc(Oc3cc(F)ccn3)cc2)n(Cc2ccc(Cl)cc2)c1=O)C(=O)O` [Compound I-070], the “Metabolism Stability” value in data set [2] is reported as 103%. The IC50 in [9] was found to be 37 nM.
Take `COC(=O)[C@@H](C)Cn1c(=O)[nH]/c(=N\c2ccc(Oc3ccccn3)c(F)c2)n(C[C@H]2CC[C@H](C)CC2)c1=O` [Compound I-253]: the IC50 in [8] came out at 9 nM.
Turning to `COc1ccc(Oc2ccc(/N=c3\[nH]c(=O)n(C[C@H](C)C(=O)O)c(=O)n3Cc3ccc(Cl)cc3)cc2)nc1` [Compound I-079], in data set [9], the IC50 was determined as 37 nM.
Compound `[2H]C([2H])([2H])c1ccc(Cn2c(=O)n(C[C@H](C)C(=O)O)c(=O)[nH]/c2=N\c2ccc(Oc3ccc(F)cn3)cc2)cc1` [Compound I-130] had an IC50 in data set [8] of 6 nM.
Still for that read-out and setting: with `Cc1ccc(Cn2c(=O)n(C[C@H](C)C(=O)O)c(=O)[nH]/c2=N\c2ccc(Oc3ncc(C)s3)cc2)cc1` [Compound R-218] the figure was 8 nM.
